According to publication PMC9105972 (International Journal of Molecular Sciences, 2022):
Like-named read-outs stand apart in the source and are kept apart here.

Tests used:
AChE [1] = settings: cited from earlier work
AChE [2] = settings: in vivo, rats, mice and rabbits; cited from earlier work
[3] = biological target: human brain AChE (HuAChE); settings: cited from earlier work
[4] = biological target: AChE from Torpedo californica (TcAChE); settings: cited from earlier work
TcAChE = biological target: T1, TcAChE (Tetronarce californica, UniProt P04058); assay: Pre-steady-state analysis by global fitting of full progress curves (ENZO); assay type: biochemical, Torpedo californica
T1 construct: TcAChE was isolated and purified as previously described; from tissue
T1 sequence (P04058 22-586): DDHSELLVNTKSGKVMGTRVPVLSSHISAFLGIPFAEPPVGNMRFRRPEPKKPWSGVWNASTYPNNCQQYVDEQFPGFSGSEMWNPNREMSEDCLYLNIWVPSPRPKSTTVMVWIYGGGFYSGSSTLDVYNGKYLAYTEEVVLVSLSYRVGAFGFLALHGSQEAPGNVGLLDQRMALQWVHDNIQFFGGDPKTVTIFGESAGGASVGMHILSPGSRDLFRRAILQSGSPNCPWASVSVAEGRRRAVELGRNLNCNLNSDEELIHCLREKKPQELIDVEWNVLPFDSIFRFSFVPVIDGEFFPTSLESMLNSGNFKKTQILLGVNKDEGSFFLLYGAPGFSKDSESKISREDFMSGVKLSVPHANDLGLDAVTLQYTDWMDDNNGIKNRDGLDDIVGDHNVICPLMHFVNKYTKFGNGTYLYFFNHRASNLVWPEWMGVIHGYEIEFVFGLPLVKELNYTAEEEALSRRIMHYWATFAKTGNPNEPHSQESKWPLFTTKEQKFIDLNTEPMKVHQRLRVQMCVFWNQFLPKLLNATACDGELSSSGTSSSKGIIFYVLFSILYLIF

Compound: COc1ccc2c3c1O[C@H]1C[C@@H](O)C=C[C@@]31CCN(C)C2 [GAL, galantamine]
- times weaker AChE inhibitor than donepezil (AChE [2]): 3–15 times
- Ki ([3]; human brain AChE, competitive inhibition, 1976): 52 nM
- Ki ([3]; recombinant form of HuAChE, 2003): 520 nM
- Ki [4]: 200 nM

Compound: C[N+](C)(C)CCSSc1ccc([N+](=O)[O-])c(C(=O)[O-])c1 [thiocholine-TNB, thiocholine-thionitrobenzoic acid]
- Ki (TcAChE; TcAChE 200 pM, ATCh 35 µM, initial thiocholine-TNB 0 to ~150 µM, competitive, read-out: Ki for product inhibition): 21500 ± 380 nM
- inhibition mechanism (TcAChE; fit of full progress curves): competitive inhibition mechanism
